# Measured values: patent EP3939578A1, “COMPOUNDS FOR TREATMENT OR PREVENTION OF AN INFECTION RESULTING FROM A CORONAVIRUS AND/OR A CORONAVIRUS-INDUCED DISEASE” (Novaremed Ltd., priority 2020, dated 2022)
# “Also recorded” adds a separate entry of the source.
# Experiments:
# [1] = Gravimetric Vapour Sorption (GVS); assay type: physicochemical
# Experimental: Approximately 10 mg of sample was placed into a wire-mesh vapour sorption balance pan and loaded into an 'IgaSorp' vapour sorption balance (Hiden Analytical Instruments). The sample was then dried by maintaining a 0% humidity environment until no further weight change was recorded. Subsequently, the sample was subjected to a ramping profile from 0 - 90 % RH at 10 % RH increments, maintaining the sample at each step until equilibration had been attained (99% step completion). Upon reaching equilibration, the % RH within the apparatus was ramped to the next step and the equilibration procedure repeated. After completion of the sorption cycle, the sample was then dried using the same procedure. The weight change during the sorption/desorption cycles were then monitored, allowing for the hygroscopic nature of the sample to be determined.
# [2] = Dog bioavailability tests of polymorphs 1 and 2; assay type: in vivo; conditions: compared with polymorph 1
# Description: The bioavailability of polymorphs 1 and 2 has also been tested and made available in PCT/EP2020/051528 as Example 3 and is incorporated herein by reference.
Structure (SMILES),"rapid moisture uptake between 70% and 80% RH ([1]; GVS, between 70% and 80% RH, hysteresis between adsorption and desorption cycles)","weight increase in second adsorption cycle ([1]; GVS, second adsorption cycle, at an RH of 40%, different form arising after the first cycle)","weight increase to 70% RH ([1]; GVS, to 70% RH)",bioavailability [2],"overall weight loss by the end of the two adsorption/desorption cycles ([1]; GVS, after two adsorption/desorption cycles, sharp weight loss at 90% RH)","weight gain to 80% RH ([1]; GVS, to 80% RH)",change of polymorphic form (XRPD) after GVS ([1]; XRPD after two adsorption/desorption cycles)
"C[C@H](O)COC[C@H](Cc1ccc(O)cc1)NC(=O)CCc1ccccc1 [polymorph 1, (S,S)-2-N(3-O-(propan-2-ol)-1-propyl-4-hydroxybenzene)-3-phenylpropylamide]",5.6%,> 2%,~1.3%,,,,
"C[C@H](O)COC[C@H](Cc1ccc(O)cc1)NC(=O)CCc1ccccc1 [polymorph 2, (S,S)-2-N(3-O-(propan-2-ol)-1-propyl-4-hydroxybenzene)-3-phenylpropylamide]",,,,higher than for polymorph 1; also recorded: better bioavailability as compared to polymorph 1; also recorded: exceptionally high,~1%,0.6%,no change of polymorphic form
